In patent US11123432B2, “Antimicrobial insect repellent composition” (YEDITEPE UNIVERSITESi, priority 2016, dated 2021):
Where two headings read alike, the source gives them in different places.

Assays:
Adenovirus Type 5 (Av-5) = assay type: cell-based, Human adenovirus type 5 Adenoid 75 strain; conditions: for reduction in virus titer: AV-5 (Table 4), ratio 1/1, 20° C., clean and contaminated media; for Ratio of reduction in virus titer: EBAAP; for EBAAP virüs titer: untreated virus titer 6.0
Poliovirus Type 1 (PV-1) = assay type: cell-based, Poliovirus type 1 Chat strain; conditions: for reduction in virus titer: PV-1 (Table 5), ratio 1/1, 20° C., clean and contaminated media; for Ratio of reduction in virus titer: EBAAP; for EBAAP virus titer: untreated virus titer 5.0
[1] = result of many toxicity experiments; cited from earlier work
Penicillium expansium = conditions: Qin et al. (2007); cited from earlier work
enteric bacteria = conditions: Bailey et al. (1980); cited from earlier work
[2] = AV-5, 5 minutes, contaminated medium
[3] = AV-5, 60 minutes, contaminated medium
[4] = PV-1, 5 minutes, contaminated medium
[5] = PV-1, 60 minutes, contaminated medium

CCCCN(CCC(=O)OCC)C(C)=O [EBAAP, Ethyl Butyl acetylaminopropionate]
reduction in virus titer (Adenovirus Type 5 (Av-5); 5 minutes): 2 log | reduction in virus titer (Adenovirus Type 5 (Av-5); 60 minutes): 4 log | Ratio of reduction in virus titer (Adenovirus Type 5 (Av-5); AV-5, 5 minutes, clean medium): 2.0 Logarithmic TCID50 | EBAAP virüs titer (Adenovirus Type 5 (Av-5); AV-5, 5 minutes, clean medium): 4.0 Logarithmic TCID50 | Ratio of reduction in virus titer (Adenovirus Type 5 (Av-5); [2]): 2.0 Logarithmic TCID50 | EBAAP virüs titer (Adenovirus Type 5 (Av-5); [2]): 4.0 Logarithmic TCID50 | Ratio of reduction in virus titer (Adenovirus Type 5 (Av-5); AV-5, 60 minutes, clean medium): 4.0 Logarithmic TCID50 | EBAAP virüs titer (Adenovirus Type 5 (Av-5); AV-5, 60 minutes, clean medium): 2.0 Logarithmic TCID50 | Ratio of reduction in virus titer (Adenovirus Type 5 (Av-5); [3]): 4.0 Logarithmic TCID50 | EBAAP virüs titer (Adenovirus Type 5 (Av-5); [3]): 2.0 Logarithmic TCID50 | active against virus (Adenovirus Type 5 (Av-5); AV-5, used undiluted, 20° C., 60 minute application): 99.9% | reduction in virus titer (Poliovirus Type 1 (PV-1); 5 minutes): 2 log | reduction in virus titer (Poliovirus Type 1 (PV-1); 60 minutes): 4 log | Ratio of reduction in virus titer (Poliovirus Type 1 (PV-1); PV-1, 5 minutes, clean medium): 2.0 Logarithmic TCID50 | EBAAP virus titer (Poliovirus Type 1 (PV-1); PV-1, 5 minutes, clean medium): 3.0 Logarithmic TCID50 | Ratio of reduction in virus titer (Poliovirus Type 1 (PV-1); [4]): 2.0 Logarithmic TCID50 | EBAAP virus titer (Poliovirus Type 1 (PV-1); [4]): 3.0 Logarithmic TCID50 | Ratio of reduction in virus titer (Poliovirus Type 1 (PV-1); PV-1, 60 minutes, clean medium): 4.0 Logarithmic TCID50 | EBAAP virus titer (Poliovirus Type 1 (PV-1); PV-1, 60 minutes, clean medium): 1.0 Logarithmic TCID50 | Ratio of reduction in virus titer (Poliovirus Type 1 (PV-1); [5]): 4.0 Logarithmic TCID50 | EBAAP virus titer (Poliovirus Type 1 (PV-1); [5]): 1.0 Logarithmic TCID50 | active against virus (Poliovirus Type 1 (PV-1); PV-1, used undiluted, 20° C., 60 minute application): 99.9% | irritation on the skin [1]: does not cause irritation on the skin

[K+].[K+].[O-]B1OB2OB([O-])OB(O1)O2 [potassium tetraborate]
minimum concentration preventing micelle growth (Penicillium expansium): 0.1%

OB(O)O [boric acid]
antibacterial activity (enteric bacteria): has antibacterial activity
